{"source": "paper PMC10352165", "about": "“Miniaturized method for the quantification of persistent organic pollutants and their metabolites in HepG2 cells: assessment of their biotransformation” (Analytical and Bioanalytical Chemistry, 2023)", "key": {"[1]": {"conditions": "cited from earlier work"}, "[2]": {"design": "method as in PMID 18318592", "conditions": "cited from earlier work"}, "[3]": {"tested_on": "HepG2 cells", "design": "method as in PMID 31426631", "conditions": "10% FBS in medium, evaporation losses considered, glass vials; cited from earlier work"}, "[4]": {"tested_on": "HepG2 cells", "test": "Plastic and glass plate exposure test (loss and cell uptake of compound)", "type": "in vitro ADME", "method": "Exposure of HepG2 cells (3 replicates) was performed by initially seeding approximately 2·10^6 cells in glass P100 plates and being incubated for 24 h at 37 °C (5% CO2) with 10 mL of DMEM supplemented with 10% FBS. […] The nominal exposure concentration was estimated by the previous MTT viability study, in which, more than 70% of the cells were alive at the end of the test (lethal concentration 30, LC30) to ensure good metabolizing capacity. Part of the contaminated medium was stored to determine the concentration at time 0 of exposure (“t = 0 h”). In addition, to consider possible analyte loss, a plate of control cells without pollutant (“blank”) and a plate with contaminated medium without cells (“no cells”) were incubated under the same conditions. […] Since the determination of PHE is carried out by LC-FL and its metabolites by GC–MS, the cell pellet was divided in half for each analysis. For this purpose, the adherent cells were lifted in suspension by trypsinization, and the total volume of the homogenous cell suspension was divided in half. Then, the resulting cell pellet from each fraction was collected by centrifuging at 1500 rpm for 5 min and removing the medium. However, for the determination of BDE-47 and its metabolites, the complete pellet obtained is analyzed because a simultaneous extraction is performed for both analyses. The obtained pellet was dried under a gentle stream of nitrogen, weighed on a precision analytical balance (± 0.00001 g), and stored at − 4 °C until analysis. Three independent assays were carried out with the same conditions, each with 3 replicates (plates) of the same concentration.\nA major problem in in vitro cell assays is the loss of compound during the exposure process to estimate the effective concentration available to the cell and to correctly assess the toxicity and metabolization kinetics of POPs, as most of them are hydrophobic and semi-volatile. Firstly, when concentration was determined in the exposure and no cells medium samples at the end of the test (48 h) using plastic Petri dishes, a loss of 89% and 84% compared to the t = 0 h sample was found in the cells and no cells sample respectively (Table 1). This loss, similar to that found in previous studies, is mainly explained by absorption into polystyrene, the main component of in vitro culture plates or evaporation processes because these compounds have a Henry law constant (KH) between 1 and 10 Pa·m^3·mol^−1 [11] (7.90 Pa·m^3·mol^−1 for PHE at 35 °C [13] and 3.78 Pa·m^3·mol^−1 for BDE-47 at 40 °C [40]). The remaining concentration in the medium that had not been lost by evaporation or absorbed into the cells was retained in the protein serum. […] A fraction dissolved in the medium accessible to the cells of 3.5% for anthracene (log Kow 4.5) was obtained introducing the conditions of this work into the chemical partitioning model developed by Fischer et al.. […] Therefore, it should be considered to avoid the use of plastic in tests that requires P100 plates with a very high surface area/volume ratio of the medium when studying neutral chemicals with a log Kow > 3, as is the case of PHE (log Kow 4.46 [39]) and BDE-47 (log Kow 6.81 [26]).\nUsing glass plates, a loss of 47% and 26% for cells and no cells samples, respectively, was found at the end of the assay (48 h) (Table 1), and the concentration absorbed by the cells increased from 4 ± 1 to 18 ± 3%. For BDE-47, a loss of only 14% because of volatilization and an absorbed concentration of 24 ± 2% resulted using a glass plate, as BDE-47 is less volatile and more hydrophobic than PHE, favoring cell uptake. Birch et al. calculated a cell-free fraction of 13% for PHE in HepG2 cells with 10% of FBS in the medium considering the evaporation losses using glass vials. […]"}, "[5]": {"tested_on": "HepG2 cells", "test": "MTT cell viability assay", "type": "cell-based", "conditions": "human, 48 h", "method": "(§1) Cell viability was determined by MTT assay. First, 10,000 cells/well were cultured in 96-well plates for 24 h at 37 °C and 5% CO2. After that time, the culture medium was replaced with a culture medium containing different concentrations (0–70 mg·L^−1) of PHE and BDE-47 for 48 h of exposure under the same incubated conditions. After that, 20 μL MTT solution (5 mg·mL^−1 diluted in PBS) was added and incubated for the following 4 h. Viable cellular metabolic reduction of MTT produced formazan crystals, which were dissolved in 100 μL sterile DMSO and quantified with absorbance measurement at 595 nm in a Multiskan Sky High ([…] Thermo Fisher). The cell viability was estimated by using Eq. (1). 1 %Viability=Aexp-Ablank/Acontrol-Ablank∙100 where Acontrol, Aexp, and Ablank are the mean absorbance value (6 replicates) of the control group (cells without pollutant), experimental group, and blank group (only cell culture medium), respectively. Five independent assays were carried out with the same conditions. The results have been subsequently used for the design of the biotransformation experiment.\n(§2) Cell viability of each concentration was estimated by using Eq. (1) according to the absorbance values obtained in the MTT assay. The dose–response values were fitted by Origin Pro 2021 with a polynomial equation (shown in Fig. 3) from which the LC value was estimated. LC50 (50% viability) and LC30 (70% viability) were estimated by the polynomial fitting of the mean cell viability data obtained from three independent experiments. Cell viability in HepG2 decreased by 30% at 22 mg·L^−1 PHE and 38 mg·L^−1 BDE-47 and up to 50% at 38 mg·L^−1 PHE and 46 mg·L^−1 BDE-47. […] The calculated LC30 values have been subsequently used for the design of the biotransformation experiments."}, "[6]": {"test": "MTT cell viability assay", "type": "cell-based", "conditions": "human", "method": "as §1, §2"}, "[7]": {"tested_on": "HepG2 cells", "conditions": "15 mg·L^−1"}, "[8]": {"tested_on": "HepG2", "conditions": "HepG2 at 48 h of PHE exposure, cited from earlier work"}, "[9]": {"conditions": "at 35 °C; cited from earlier work"}}}
{"smiles": "c1ccc2c(c1)ccc1ccccc12", "note": "[PHE, phenanthrene]", "values": [{"measurement": "log Kow", "setting": "[1]", "value": 4.46}, {"measurement": "absorption when glass is used", "setting": "[2]; glass", "value": 2, "unit": "%"}, {"measurement": "initial concentration absorbed on polystyrene", "setting": "[2]; polystyrene", "value": 94, "unit": "%"}, {"measurement": "cell-free fraction", "setting": "[3]", "value": 13, "unit": "%"}, {"measurement": "Conc. PHE Glass plate exposure", "setting": "[4]; 0 h", "value": 4370, "unit": "ng/mL"}, {"measurement": "Conc. PHE Plastic plate exposure", "setting": "[4]; 0 h", "value": 5570, "unit": "ng/mL"}, {"measurement": "Conc. PHE Glass plate exposure", "setting": "[4]; 24 h", "value": 3690, "unit": "ng/mL"}, {"measurement": "Conc. PHE Glass plate exposure", "setting": "[4]; 48 h", "value": 3160, "unit": "ng/mL"}, {"measurement": "Conc. PHE Plastic plate exposure", "setting": "[4]; 48 h", "value": 880, "unit": "ng/mL"}, {"measurement": "loss at the end of the assay", "setting": "[4]; 48 h", "value": 26, "unit": "%"}, {"measurement": "loss compared to the t = 0 h sample", "setting": "[4]; 48 h", "value": 84, "unit": "%"}, {"measurement": "concentration absorbed by the cells", "setting": "[4]; human, 48 h", "value": "18 ± 3", "unit": "%"}, {"measurement": "loss at the end of the assay", "setting": "[4]; human, 48 h", "value": 47, "unit": "%"}, {"measurement": "loss compared to the t = 0 h sample", "setting": "[4]; human, 48 h", "value": 89, "unit": "%"}, {"measurement": "taken up by the cells", "setting": "[4]; human, 48 h", "value": "4 ± 1", "unit": "%"}, {"measurement": "LC30 (70% viability; cell viability decreased by 30%)", "setting": "[5]", "value": 22, "unit": "µg/mL"}, {"measurement": "CC50 at 48 h", "setting": "[6]", "value": 38, "unit": "µg/mL"}, {"measurement": "Concentration in medium, t = 0 h", "setting": "[7]; 0 h", "value": "12000 ± 1000", "unit": "ng/mL"}, {"measurement": "Concentration in medium, no cells", "setting": "[7]; 48 h", "value": "8000 ± 2000", "unit": "ng/mL"}, {"measurement": "Concentration in cells, samples (n = 3)", "setting": "[7]; human, 48 h", "value": "521 ± 144", "unit": "µg/g"}, {"measurement": "Concentration in medium, samples", "setting": "[7]; human, 48 h", "value": "5700 ± 700", "unit": "ng/mL"}, {"measurement": "LC50", "setting": "[8]", "value": 20.3, "unit": "µg/mL"}, {"measurement": "CC50", "setting": "[8]; read-out: LC50 (the source's name)", "value": 114, "unit": "µM"}, {"measurement": "Henry law constant (KH)", "setting": "[9]", "value": 7.90, "unit": "Pa·m^3·mol^−1"}]}
